Results taken from patent US20050054103A1, “Expansion of renewable stem cell populations using modulators of PI 3-kinase” (priority 2003, published 2005).

Key:
primary hepatocytes = experiment: Primary hepatocyte cultures with RAR antagonist (AFP/albumin immunostaining, Giemsa); type: cell-based, mice; conditions: for α-fetoprotein (AFP) expression vs control: three week old primary cultures, no cytokines
Description: Three intact livers were harvested from 3 week old VLVC female mice (Harlan Laboratories, Jerusalem, Israel), dissected and washed twice with DMEM (Beit Haemek, Israel), incubated with DMEM in the presence 0.05% collagenase for 30 minutes at 37° C., ground and passed through a 200 μm mesh sieve, yielding individual hepatocytes. Cells were washed twice and viability was ascertained with trypan blue. Cells were plated in collagen-coated, 35 mm tissue culture plates at a density of 4-×10^4 live cells/ml in F12 media (containing 15 mM Hepes, 0.1% glucose, 10 mM sodium bicarbonate, 100 units/ml penicillin-streptomycin, glutamine, 0.5 units/ml insulin, 7.5 m cg/ml hydrocortisone, and 10% fetal bovine serum). Medium was changed after 12 hours, the cells were washed twice with phosphate buffered saline (PBS) and new medium was added. Medium was changed twice a week.
Hepatocytes were also grown in the presence of Epidermal Growth Factor (EGF), Platelet-Derived Growth Factor β chain (PDGF-BB), Fibroblast growth Factors (FGF-4) and Hepatocyte Growth Factor (HGF), at 20-50 ng/ml each, for the entire culturing period according to the method of Schwartz et al. (Schwartz R E, Reyes M, Koodie L, Jiang Y, Blackstad M, Lund T, Lenvik T, Johnson S, Hu W S, Verfaillie C M. Multipotent adult progenitor cells from bone marrow differentiate into functional hepatocyte-like cells. J Clin Invest. 2002; 109 (10): 1291-302). Hepatocytes were also grown in serum free medium according to the method of Runge et al. (Runge D, Runge D M, Jager D, Lubecki K A, Beer Stolz D, Karathanasis S, Kietzmann T, Strom S C, Jungermann K, Fleig W E, Michalopoulos G K. Serum-free, long-term cultures of human hepatocytes: maintenance of cell morphology, transcription factors, and liver-specific functions. Biochem Biophys Res Commun. 2000; 269(1): 46-53).
In all of the above-mentioned hepatocytes culture conditions, cells are grown in the presence or absence of the retinoic acid antagonist AGN 194310 at concentrations ranging from 10^−5 M to 10^−9 M.
After a period of 3 weeks, cultures treated with 10^−5 M antagonist were detached with 0.25% trypsin, split and replated at a 1:2 ratio. The cells were either immunostained as described below, or visualized with Giemsa staining.
Murine hepatocyte cultures supplemented with EGF and HGF were evaluated as primary cultures, or following first and second passages. First passage cultures were grown for 2 weeks, split 1:2 and immunostained 8 days later for the presence of albumin, as described below. Second passage cultures were similarly grown for 2 weeks, split 1:2, and grown for an additional week, then split 1:4 and similarly immunostained 4 days later. […]

CD34+ cells = experiment: Ex vivo expansion of CD34+ cell enriched cultures with RXR, RAR and RAR+RXR antagonists (CFU, CD34+ counts, FACS); type: cell-based, human; conditions: 10^−7 M, with TPO, FLT3, IL-6 and IL-3; 3 and 5 weeks
Description: Cultures were prepared and maintained as described above.
, the percentage of cells bearing the CD34^+ marker (considered to be mostly committed progenitor cells), as well as the percentage of cells bearing the markers CD34^+/CD38^− and CD34^+Lin^− […]

[1] = test system: Mouse erythroleukemic cells (MEL); experiment: HMBA-induced differentiation of erythroleukemic cells; type: cell-based; conditions: day 3
Description: Mouse erythroleukemic cells (MEL): MEL cells are erythroblast like cells. Following treatment with several chemicals (differentiation inducers) the cells undergo erythroid differentiation and accumulate hemoglobin. […] At day 3 of the culture, the total number of cells and the percentage of hemoglobin-containing cells were determined (Table 7).
On day 3, total cell number and hemoglobin containing (benzidine positive) cells were determined.

Cord blood-derived cells = experiment: Storage and separation of cord blood cells in the presence of TEPA, then long-term culture; type: cell-based; conditions: cells stored 24 hours at 4° C. and separated with 10 μM TEPA
Description: Cord blood-derived cells were collected and stored (unseparated) for 24 hours, at 4° C., either in the presence or absence of 10 μM TEPA. CD34^+ cells were then separated using either 10 μM TEPA-PBS buffer or TEPA free PBS buffer, respectively. Then, cells were grown in long-term cultures in the presence of 10 μM TEPA.

Hepatocytes = experiment: Hepatocyte cultures ex-vivo expanded with TEPA; type: cell-based, BALB/c mice; conditions: 15 μg/ml TEPA, five weeks
Description: Hepatocytes: Livers were dissected from anesthetized BALB/c mice with sterile tools and immersed into F12 culture medium (Biological Industries, Kibbutz Bet Ha'Emek, Israel). The livers were washed three times with 3% BSA/PBS buffer and minced into small pieces with seizures. Following three washes with 3% BSA/PBS the liver tissue pieces were incubated for 30 minutes with 0.05% collagenase at 37° C. with continuos shaking under 5% CO2 atmosphere. The digested liver tissue pieces were than mashed by pressing through a fine mesh strainer. After three washes with 3% BSA/PBS the liver cells were seeded into F12 culture medium enriched with: 15 mM HEPES buffer, […], 10 mM sodium bicarbonate, 0.5 u/ml insulin, 7.5 ng/ml hydrocortisone and with or without 15 μg/ml of TEPA and incubated at 37° C. in a 5% CO2 atmosphere. After overnight incubation the medium was removed and the cells were supplemented with fresh enriched F12 medium as described above with or without 15 μg/ml of TEPA. Hepatocytes were incubated in 35 mm dishes for several weeks with enriched F12 culture medium with or without 15 μg/ml TEPA at 37° C. under 5% CO2 atmosphere. Cell culture medium was replaced every week with a fresh medium.

With `CCc1ccc(C2=CC(C)(C)Sc3ccc(C#Cc4ccc(C(=O)O)cc4)cc32)cc1` [AGN 194310] the “oval cell population (giemsa)” value (primary hepatocytes; 10^−5 M, primary cultures) was “marked increase in oval cell population”, the “α-fetoprotein (AFP) expression vs control” value (primary hepatocytes; 10^−5 M) was “marked increase in AFP expression” and the “α-fetoprotein (AFP) expression vs control” value (primary hepatocytes; 10^−5 M, listed as retinoic acid antagonist) was “increase in the fraction of cells that stained positively for α-fetoprotein”. The “numbers of hepatocytes vs controls” value (primary hepatocytes; second passage, EGF + HGF, 10^−5 M to 10^−7 M) was “Significantly greater numbers of hepatocytes” and the “activity on ex vivo expansion of stem/progenitor cells (CFU, CD34+, CD34+/38−, CD34+/Lin−)” value (CD34+ cells) was “moderate activity”.

With `NCCNCCNCCNCCN` [TEPA, tetraethylenepentamine] the “Benzidine Positive Cells (%)” value ([1]; HMBA + chelator 5 μM) was 24%, the “Cells/ml (×10^4)” value ([1]; HMBA + chelator 5 μM) was 35 ×10^4 and the “Benzidine Positive Cells (%)” value ([1]; HMBA + chelator 10 μM) was 16%. The “Cells/ml (×10^4)” value ([1]; HMBA + chelator 10 μM) was 35 ×10^4, the “Benzidine Positive Cells (%)” value ([1]; HMBA + chelator 20 μM) was 16% and the “Cells/ml (×10^4)” value ([1]; HMBA + chelator 20 μM) was 47 ×10^4. For the same compound, the “duration of expansion of long-term cultures” value (Cord blood-derived cells) was 8 weeks and the “cell content of hepatocyte cultures” value (Hepatocytes) was “contained many dividing and undifferentiated cells”.
